Assay results as given in BindingDB's records for patent US20240150287 (Hangzhou Apeloa Medicine Research Institute Co., 2024).
Several values for one entry are separate records, joined by “and”; a condition that tells them apart may be missing. Equal entries are not always repeated.

Molecular target: T1, Mucosal addressin cell adhesion molecule 1/Integrin alpha-4/beta-7 (Homo sapiens, UniProt P13612+P26010+Q13477)
T1 sequence (P13612 whole entry): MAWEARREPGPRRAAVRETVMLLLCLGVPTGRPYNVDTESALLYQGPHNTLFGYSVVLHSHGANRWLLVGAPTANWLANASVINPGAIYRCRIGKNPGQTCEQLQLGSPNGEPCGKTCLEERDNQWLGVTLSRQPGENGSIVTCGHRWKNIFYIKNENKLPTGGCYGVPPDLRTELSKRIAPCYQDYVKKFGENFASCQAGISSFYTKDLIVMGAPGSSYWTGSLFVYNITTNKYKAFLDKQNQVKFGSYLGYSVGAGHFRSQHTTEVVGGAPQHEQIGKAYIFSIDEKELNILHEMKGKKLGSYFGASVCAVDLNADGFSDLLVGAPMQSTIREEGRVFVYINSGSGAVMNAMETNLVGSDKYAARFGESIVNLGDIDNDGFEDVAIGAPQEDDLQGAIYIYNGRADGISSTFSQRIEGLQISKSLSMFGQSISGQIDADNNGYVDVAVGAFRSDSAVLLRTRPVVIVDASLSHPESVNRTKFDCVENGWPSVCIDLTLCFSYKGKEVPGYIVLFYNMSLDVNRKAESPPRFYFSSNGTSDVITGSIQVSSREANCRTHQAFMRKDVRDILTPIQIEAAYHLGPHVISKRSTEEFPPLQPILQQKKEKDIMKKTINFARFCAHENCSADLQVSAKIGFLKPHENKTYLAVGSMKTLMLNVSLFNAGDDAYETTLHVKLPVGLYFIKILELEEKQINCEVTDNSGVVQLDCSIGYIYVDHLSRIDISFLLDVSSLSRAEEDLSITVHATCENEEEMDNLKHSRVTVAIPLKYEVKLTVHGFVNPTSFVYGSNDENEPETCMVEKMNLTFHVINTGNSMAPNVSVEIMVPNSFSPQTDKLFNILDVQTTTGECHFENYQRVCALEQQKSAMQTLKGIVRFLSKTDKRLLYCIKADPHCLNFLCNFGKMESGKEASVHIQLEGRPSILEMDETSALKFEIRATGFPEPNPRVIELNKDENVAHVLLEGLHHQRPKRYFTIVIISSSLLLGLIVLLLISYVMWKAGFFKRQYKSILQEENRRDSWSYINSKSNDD
T1 sequence (P26010 whole entry): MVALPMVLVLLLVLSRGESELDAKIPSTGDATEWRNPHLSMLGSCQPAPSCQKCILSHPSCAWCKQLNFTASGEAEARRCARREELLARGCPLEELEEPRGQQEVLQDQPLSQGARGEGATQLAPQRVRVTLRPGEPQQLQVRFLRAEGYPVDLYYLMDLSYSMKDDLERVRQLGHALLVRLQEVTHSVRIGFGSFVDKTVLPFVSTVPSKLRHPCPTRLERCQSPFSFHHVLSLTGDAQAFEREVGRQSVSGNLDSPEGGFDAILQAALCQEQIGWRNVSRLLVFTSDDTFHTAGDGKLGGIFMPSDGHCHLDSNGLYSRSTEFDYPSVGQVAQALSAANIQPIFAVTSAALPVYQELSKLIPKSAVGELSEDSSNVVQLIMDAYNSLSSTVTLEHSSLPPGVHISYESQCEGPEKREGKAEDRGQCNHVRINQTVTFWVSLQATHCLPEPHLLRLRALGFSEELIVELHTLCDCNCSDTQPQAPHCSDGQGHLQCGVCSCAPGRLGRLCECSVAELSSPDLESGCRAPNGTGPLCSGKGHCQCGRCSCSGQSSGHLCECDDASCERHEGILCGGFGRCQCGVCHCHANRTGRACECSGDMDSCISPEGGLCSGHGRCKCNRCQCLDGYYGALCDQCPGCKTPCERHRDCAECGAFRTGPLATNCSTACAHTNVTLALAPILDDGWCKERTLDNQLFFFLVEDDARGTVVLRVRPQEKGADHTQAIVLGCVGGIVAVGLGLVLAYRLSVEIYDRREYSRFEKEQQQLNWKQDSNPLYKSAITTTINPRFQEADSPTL
T1 sequence (Q13477 whole entry): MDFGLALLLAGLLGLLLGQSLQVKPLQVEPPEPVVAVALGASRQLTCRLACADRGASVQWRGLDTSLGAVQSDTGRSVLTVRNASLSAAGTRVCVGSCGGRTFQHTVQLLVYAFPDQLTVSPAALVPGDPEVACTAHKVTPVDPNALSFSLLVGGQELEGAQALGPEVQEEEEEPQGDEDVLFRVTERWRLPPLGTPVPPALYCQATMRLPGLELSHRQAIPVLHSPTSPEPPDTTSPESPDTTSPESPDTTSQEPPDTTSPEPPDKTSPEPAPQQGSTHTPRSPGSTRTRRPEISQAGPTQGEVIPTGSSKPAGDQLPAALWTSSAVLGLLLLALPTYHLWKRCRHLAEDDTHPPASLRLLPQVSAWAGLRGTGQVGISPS
Test: BINDING INHIBITION ACTIVITY EVALUATION TEST
Method: Coat the 96-well microplate (Costar) with 50 μL of recombinant human MAdCAM-1 (R&D Systems) solution per well, and incubate overnight (12-18 hours) at 4° C. Wash three times with 150 μL of TBS buffer per well. Block plate with 150 μL per well with blocking buffer for 1 h at 37° C. Wash three times with 150 μL of TBS buffer per well. Dilute the recombinant human integrin α4β7 (R&D Systems) with TBS buffer containing 0.1% bovine serum albumin (BSA), then add to the 96 well plate with 50 μL per well. Add 1 μL of test compound or DMSO, cover, incubate at room temperature for 2 h, wash three times with 150 μL of TBS buffer per well. Dilute the anti-β7 antibody (R&D Systems) with 0.1% BSA TBS buffer, then add to the 96 well plate with 50 μL per well, cover, incubate at room temperature for 1 h, wash three times with 150 μL of TBS buffer per well. Add 50 μL of streptavidin-HRP (R&D Systems) per well, incubate at room temperature for 20 min, wash three times with 150 μL of TBS buffer per well. Add 50 μL of TMB substrate solution (Sigma) per well, incubate at room temperature for 5-30 min, and add 25 μL of stop solution per well to stop the reaction. Finally, measure absorbance at 450 nm with microplate reader (SpectraMax 340PC. Molecular Devices). Repeat the test to find the binding rate […] at each concentration when the absorbance of the well without the test substance is used as 100%, and calculate the concentration IC50 that causes 50% binding inhibition.

Structure (SMILES)	IC50
COC(=O)[C@H](Cc1ccc(N2C(=O)C3(CC3)c3cc(F)c(F)cc32)cc1)NC(c1ccccc1)(c1ccccc1)c1ccccc1 [US20240150287, Example 1]	14.3 nM
COC(=O)[C@H](Cc1ccc(N2C(=O)C3(CC3)c3ccc(F)cc32)cc1)NC(c1ccccc1)(c1ccccc1)c1ccccc1 [US20240150287, Example 4]	2.54 nM and 8.02 nM
COC(=O)[C@H](Cc1ccc(N2C(=O)C3(CC3)c3cccc(F)c32)cc1)NC(c1ccccc1)(c1ccccc1)c1ccccc1 [US20240150287, Example 5]	6.21 nM
COC(=O)[C@H](Cc1ccc(N2C(=O)C3(CC3)c3ccccc32)cc1)NC(c1ccccc1)(c1ccccc1)c1ccccc1 [US20240150287, Example 6]	5.81 nM
COC(=O)[C@H](Cc1ccc(N2C(=O)C3(CCOCC3)c3cccc(Cl)c32)cc1)NC(c1ccccc1)(c1ccccc1)c1ccccc1 [US20240150287, Example 7]	16.1 nM
COC(=O)[C@H](Cc1ccc(N2C(=O)C3(CC3)c3cc(F)c(Cl)cc32)cc1)NC(c1ccccc1)(c1ccccc1)c1ccccc1 [US20240150287, Example 8]	17.6 nM
COC(=O)[C@H](Cc1ccc(N2C(=O)C3(CC3)c3cc(F)ccc32)cc1)NC(c1ccccc1)(c1ccccc1)c1ccccc1 [US20240150287, Example 9]	95.5 nM
COC(=O)[C@H](Cc1ccc(N2C(=O)C(C)(C)c3cccc(Cl)c32)cc1)NC(c1ccccc1)(c1ccccc1)c1ccccc1 [US20240150287, Example 10]	38.8 nM
COC(=O)[C@H](Cc1ccc(N2C(=O)C3(CC3)c3cccc(Cl)c32)cc1)NC(=O)c1c(Cl)cc(Cl)cc1Cl [US20240150287, Example 17]	64.2 nM
COC(=O)[C@H](Cc1ccc(N2C(=O)C3(CC3)c3cccc(Cl)c32)cc1)NC(=O)c1c(Cl)cc(N2CCOCC2)cc1Cl [US20240150287, Example 19]	11.4 nM
COC(=O)[C@H](Cc1ccc(N2C(=O)C3(CC3)c3cccc(Cl)c32)cc1)NC(=O)c1c(Cl)cc(N2CCC(N3CCOCC3)CC2)cc1Cl [US20240150287, Example 21]	23.8 nM
COC(=O)[C@H](Cc1ccc(-n2c(=O)n(C3CC3)c3cc(Cl)ccc32)cc1)NC(c1ccccc1)(c1ccccc1)c1ccccc1 [US20240150287, Example 23]	143 nM
COC(=O)[C@H](Cc1ccc(-n2c(=O)n(C3CC3)c3cccc(Cl)c32)cc1)NC(c1ccccc1)(c1ccccc1)c1ccccc1 [US20240150287, Example 25]	7.5 nM
COC(=O)[C@H](Cc1ccc(-n2c(=S)n(C)c3cccc(Cl)c32)cc1)NC(c1ccccc1)(c1ccccc1)c1ccccc1 [US20240150287, Example 26]	160 nM
COC(=O)[C@H](Cc1ccc(-n2c(=O)n(C3CC3)c3cccc(F)c32)cc1)NC(c1ccccc1)(c1ccccc1)c1ccccc1 [US20240150287, Example 27]	8.81 nM
COC(=O)[C@H](Cc1ccc(-n2c(=O)n(C3CCN(C)CC3)c3cccc(Cl)c32)cc1)NC(c1ccccc1)(c1ccccc1)c1ccccc1 [US20240150287, Example 29]	18.1 nM
COC(=O)[C@H](Cc1ccc(-n2c(=O)n(C)c3c(F)c(F)ccc32)cc1)NC(c1ccccc1)(c1ccccc1)c1ccccc1 [US20240150287, Example 34]	10.5 nM

More lines, now with the values ahead:

IC50	Structure (SMILES)
2.57 nM	COC(=O)[C@H](Cc1ccc(N2C(=O)C3(CC3)c3cccc(Cl)c32)cc1)NC(c1ccccc1)(c1ccccc1)c1ccccc1 [US20240150287, Example 2]
5.48 nM	COC(=O)[C@H](Cc1ccc(N2C(=O)C3(CC3)c3cccc(OC)c32)cc1)NC(c1ccccc1)(c1ccccc1)c1ccccc1 [US20240150287, Example 3]
3.05 nM	COC(=O)[C@H](Cc1ccc(N2C(=O)C3(CC3)c3cc(F)c(N(C)C)cc32)cc1)NC(c1ccccc1)(c1ccccc1)c1ccccc1 [US20240150287, Example 11]
4.15 nM	COC(=O)[C@H](Cc1ccc(N2C(=O)C3(CC3)c3cc(N(C)C)ccc32)cc1)NC(c1ccccc1)(c1ccccc1)c1ccccc1 [US20240150287, Example 12]
5.62 nM	COC(=O)[C@H](Cc1ccc(N2C(=O)C3(CC3)c3ccc(F)c(F)c32)cc1)NC(c1ccccc1)(c1ccccc1)c1ccccc1 [US20240150287, Example 15]
0.75 nM	COC(=O)[C@H](Cc1ccc(N2C(=O)C3(CC3)c3cccnc32)cc1)NC(c1ccccc1)(c1ccccc1)c1ccccc1 [US20240150287, Example 16]
4.15 nM	COC(=O)[C@H](Cc1ccc(N2C(=O)C3(CC3)c3cccc(Cl)c32)cc1)NC(=O)c1c(Cl)cc(N2CC3CC2CO3)cc1Cl (stereo partly specified) [US20240150287, Example 20]
1.19 nM	COC(=O)[C@H](Cc1ccc(-n2c(=O)n(C)c3cccc(Cl)c32)cc1)NC(c1ccccc1)(c1ccccc1)c1ccccc1 [US20240150287, Example 22]
5.67 nM	COC(=O)[C@H](Cc1ccc(-n2c(=O)n(C3CC3)c3ccc(Cl)cc32)cc1)NC(c1ccccc1)(c1ccccc1)c1ccccc1 [US20240150287, Example 24]
1.83 nM	COC(=O)[C@H](Cc1ccc(-n2c(=O)n(C)c3cccc(F)c32)cc1)NC(c1ccccc1)(c1ccccc1)c1ccccc1 [US20240150287, Example 30]
5.34 nM	COC(=O)[C@H](Cc1ccc(-n2c(=O)n(C)c3cc(F)cc(F)c32)cc1)NC(c1ccccc1)(c1ccccc1)c1ccccc1 [US20240150287, Example 31]
4.19 nM	COC(=O)[C@H](Cc1ccc(-n2c(=O)n(C)c3cc(Cl)c(Cl)cc32)cc1)NC(c1ccccc1)(c1ccccc1)c1ccccc1 [US20240150287, Example 32]
2.7 nM	COC(=O)[C@H](Cc1ccc(-n2c(=O)n(C)c3ccc(F)c(F)c32)cc1)NC(c1ccccc1)(c1ccccc1)c1ccccc1 [US20240150287, Example 33]
0.45 nM	COC(=O)[C@H](Cc1ccc(-n2c(=O)n(C)c3cccc(OC)c32)cc1)NC(c1ccccc1)(c1ccccc1)c1ccccc1 [US20240150287, Example 35]
